PubChem BioAssay (NCI)
Where “and” joins values, the source holds several entries; their conditions need not be identical. Equal entries are not always repeated.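 These data come from cells grown in 96-well plates and exposed to compound for 48 hours at five concentrations. GI50: concentration for 50% inhibition of growth. The concentration for full growth arrest is given as TGI.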

Columns and labels:
Test in all cases: NCI-60 cell line screen, 48 h
SW-620 colon = tested on: SW-620 colon
PC-3 prostate = tested on: PC-3 prostate
UACC-62 melanoma = tested on: UACC-62 melanoma
MDA-MB-435 = tested on: MDA-MB-435
U251 CNS = tested on: U251 CNS
OVCAR-3 ovarian = tested on: OVCAR-3 ovarian
KM12 colon = tested on: KM12 colon
A498 renal = tested on: A498 renal
SR leukemia = tested on: SR leukemia
NCI/ADR-RES ovarian = tested on: NCI/ADR-RES ovarian

Compound	TGI (SW-620 colon)	TGI (PC-3 prostate) [µM]	TGI (UACC-62 melanoma) [µM]	TGI (MDA-MB-435) [µM]	TGI (U251 CNS)	TGI (OVCAR-3 ovarian)	TGI (KM12 colon)	TGI (A498 renal)	TGI (SR leukemia) [µM]	GI50 (NCI/ADR-RES ovarian) [µM]	TGI (NCI/ADR-RES ovarian) [µM]	GI50 (SW-620 colon)	GI50 (PC-3 prostate) [µM]	GI50 (UACC-62 melanoma) [µM]	GI50 (MDA-MB-435) [µM]	GI50 (U251 CNS)	GI50 (KM12 colon)	GI50 (A498 renal)	GI50 (SR leukemia) [µM]	GI50 (OVCAR-3 ovarian) [µM]
COC(=O)c1ccccc1NC(=O)C(=O)CC(=O)c1ccccc1NC1=CC(=O)C(=O)c2ccccc21	23 µM	42.3	24.5	8.59	67.4 µM	12.3 µM	52.8 µM	> 56.2 µM	> 100											
COc1cc2c3c(n(CCN)c(=O)c2cc1OC)-c1cc2c(cc1C3=O)OCO2	2.29 µM	2.89	1.51	2.78			1.51 µM	18.9 µM	> 100	0.152	0.808	0.0383 µM	0.671	0.134	1.04	0.367 µM	0.235 µM	3.48 µM	1.56	
N/N=C1\c2ccccc2C2/C(=N\N)c3ccccc3C12 (stereo unspecified)	> 100 µM		> 100		> 100 µM	> 100 µM	> 100 µM													
CCOc1ccccc1NC(=O)CCc1nnc2s/c(=C\CCc3ccccc3)c(=O)n12	> 100 µM		> 100		> 100 µM	> 100 µM	> 100 µM	> 100 µM	> 100											
Cc1ccc(S(=O)(=O)N2CCC3(C(/C=C/c4ccccc4)=Nc4ccccc43)C2c2ccccc2)cc1 (stereo unspecified)	> 100 µM		> 100		> 100 µM	> 100 µM	> 100 µM	> 100 µM	> 100											
Cc1ccc(S(=O)(=O)Oc2ccc3c4c(c(=O)oc3c2)CCCCC4)cc1		> 100	> 100	> 100	> 100 µM		> 100 µM	> 100 µM	> 100	6.76	> 100		4.26	5.72	> 100	> 100 µM	7.16 µM	6.21 µM	3.3	
CC1CCCC(C(O)CC2CC(=O)N(c3ccccc3)C(=O)C2)C1=O (stereo unspecified)	> 100 µM		> 100		> 100 µM	> 100 µM	> 100 µM	> 100 µM	> 100											
C=CCNC1=C(C(=O)OCC)C(=O)CO1	> 100 µM		> 100		> 100 µM	> 100 µM		> 100 µM	> 100											
C/C(=N\NC(=O)CC(=O)Nc1ccc(Cl)cc1)c1cc2ccccc2oc1=O	> 100 µM		> 100		> 100 µM	> 100 µM	> 100 µM													
CN(C)c1ccc(/C=C2\CNC/C(=C\c3ccc(N(C)C)cc3)C2=O)cc1			> 100		28.7 µM	> 100 µM		39.5 µM	82.8											
Cc1c(O)c(=O)ccn1C1OC(CO)C(O)C1O (stereo unspecified)	> 100 µM		> 100		> 100 µM	> 100 µM	> 100 µM	> 100 µM	> 100											
CC(=O)OCC1OC(OC2CC3C(C)(C)C(OC(C)=O)CC[C@]3(C)C3CCC45CC4(CC[C@H]5C(C)CC(O)C4OC4(C)C)[C@]23C)C(O)C(O)C1O (stereo partly specified)	9.98 µM and 11.3 µM				7.73 µM and 11.8 µM	8.76 µM and 7.08 µM	3.82 µM and 3.15 µM	10.2 µM	8.58			3.46 µM		> 60		3.13 µM	1.56 µM			
O=C1c2cccnc2-c2nc(/C=C/c3ccccc3)cc3c2c1nc1ccccc13		13.6	3.28	3.37	11.1 µM	4.69 µM	5.04 µM	10.5 µM		6.35	42.1		1.97	1.72	1.86	2.9 µM	1.78 µM	3.88 µM		1.9
COc1ccc2nc(NCCCNCCO)c3sc4ccc(F)cc4c(=O)c3c2c1	3.04 µM	3.04	3.29	3.1	3.38 µM	3.38 µM	3.52 µM	2.98 µM				1.53 µM	1.56	1.76	1.66	1.62 µM	1.81 µM	1.53 µM		1.8
O=C1CC2CCCCC2=C1O (stereo unspecified)	> 100 µM		> 100		> 100 µM	> 100 µM	> 100 µM	> 100 µM												
O=C(CC/C(C/C(=N/O)c1ccc(F)cc1)=N/O)N(Cc1ccccc1)Cc1ccccc1	> 100 µM		> 100		> 100 µM	> 100 µM	> 100 µM	> 100 µM												
O=c1cccc(C#Cc2ccccc2)o1	43.3 µM	> 40.4	19.7	24.9	> 36.4 µM	11.1 µM	14.6 µM	7.02 µM		7.11	> 26.6	4.85 µM	3.41	6.32	6.89	9.2 µM	5.05 µM	2.38 µM		2.42
COc1cc(-c2oc3c(OC)c(OC)cc(O)c3c(=O)c2OC)ccc1O	> 100 µM	> 50	> 100	> 50	> 100 µM	> 50 µM	> 100 µM	> 100 µM and 42.4 µM			> 50	> 100 µM and 37.8 µM				5.97 µM and 12.7 µM	> 100 µM and 19 µM	3.38 µM and 16.6 µM		
CCOP(=O)(CC(=O)C1=C(O)C(CCCNC(=O)OC(C)(C)C)N(Cc2ccc(OC)c(OC)c2)C1=O)OCC (stereo unspecified)	> 100 µM		> 100		> 100 µM	> 100 µM	> 100 µM	> 100 µM	> 100											
Cc1ccc(S(=O)(=O)CNC(=S)CCCC(=S)NCS(=O)(=O)c2ccc(C)cc2)cc1	> 100 µM		> 100		> 100 µM	> 100 µM	> 100 µM	> 100 µM	> 100											
O=S(=O)(NC(=S)Nc1ccccc1)c1ccc(N2N=C3c4ccccc4CC3C2c2cccs2)cc1 (stereo unspecified)	> 100 µM	54.4	37.3	45.6	76.7 µM	46.9 µM	> 100 µM			19.3	44.5	30 µM	22.9	18.5	19.4	26.2 µM	21.5 µM			17.2
